This is an account of results in a melting point compilation (Tetko et al.; mined from patent text by program, amines drawn as free bases though some values may be those of a salt).

SMILES strings stand for the structures.

The melting point is the temperature of the solid-liquid transition. `COc1ccc(C(=O)C2CCC(C)(C(=O)O)C2(C)C)cc1` (stereo not drawn) yielded a melting point of 165 to 166 °C.

Compound `CN(C=O)c1cc([N+](=O)[O-])cc([N+](=O)[O-])c1` showed a melting point of 93 to 94 °C.

In turn, `COc1ccc(CNc2nc(N3CCC[C@H]3CO)ncc2C(=O)O)cc1Cl` displayed a melting point of 205 to 208 °C.

Compound `CCOC(=O)C(=Cc1cccc(OC)c1OC)N=[N+]=[N-]` displayed a melting point of under 50 °C.

On to `CCc1nc(-n2ccnc2)c2ccccc2c1Cl`, for which the melting point turned out to be 115 °C.

Compound `Cc1c(CC(=O)O)oc2ccc(F)cc12` returned a melting point of 129 to 130 °C.

In the case of `NS(=O)(=O)c1ccc(-n2nc(CNC(=O)NO)cc2-c2ccc(Cl)cc2)cc1`, the melting point is 216 to 218 °C.

`Fc1ccc2c(C3CCN(CC4=Cc5cc6c(cc54)OCO6)CC3)noc2c1`: the melting point was in the range of 125 to 126 °C.

`CC(Oc1ccc(Oc2cnc3cc(F)ccc3n2)cc1)C(=O)Nc1ccc(OC(F)(F)F)cc1` (stereo not drawn) had a melting point of 140 to 142 °C.

In turn, `O=[N+]([O-])c1cccc(CN2CCOCC2)c1` displayed a melting point of 48 to 50 °C.

As for `C[C@H](NC(=O)C(SC(=O)c1ccccc1)SC(=O)c1ccccc1)C(=O)O`, the melting point lay within 161 to 162 °C.

`N#Cc1ccc(OCc2ccsc2)cc1OC(C(=O)O)c1ccccc1Cl` (racemic): the melting point was in the range of 68 to 70 °C.

`O=S1(=O)c2cccc3cccc(c23)N1CCN1CCC(CC2C=Cc3ccccc32)CC1` (stereo not drawn) yielded a melting point of 166 °C.

With `CN(C(=O)Nc1ccc2ccccc2c1)c1cccc(-c2ccc(CCC(=O)O)cc2)c1`, the melting point lay within 170 to 171 °C.

Turning to `CCCN1C(=O)C2(c3ccc([N+](=O)[O-])cc3)CC(c3ccc([N+](=O)[O-])cc3)(C2)C1=O`, the melting point lay within 237 to 238 °C.

Compound `O=C(Nc1ccc(N2CCOCC2=O)cc1)[C@H]1C[C@@H](O)CN1C(=O)/C=C/c1ccc(Cl)s1` showed a melting point of 151 °C.

`Cc1ccc(-c2cn(C)c(-c3nc(-c4ccc(C)s4)cn3C)n2)s1` yielded a melting point of 220 to 228 °C.

`CC(=O)Nc1ccc(F)cc1OCCOc1ccc([N+](=O)[O-])cc1F` showed a melting point of 192 to 194 °C.

The compound `CCc1cc(CCCOc2c(C)cc(-c3noc(C(F)(F)F)n3)cc2C)on1` returned a melting point of 157 to 158 °C.

The compound `Cc1ccc2c(n1)Nc1cc(C)c(C)cc1N(C)C2=O` displayed a melting point of 217 to 219 °C.

Compound `COc1nc(C)cnc1N(C(=O)OCC(C)C)S(=O)(=O)c1cccnc1-c1ccc(C)cc1` had a melting point of 143 to 145 °C.

Compound `COc1cc(NC(=O)Nc2ccccc2)cc(OC)n1` registered a melting point of 190 to 192 °C.

Compound `CC(=O)Cc1cc2[nH]c(=O)oc2cc1Br` displayed a melting point of 160 to 162 °C.

Compound `CN(C)C[C@@H]1C[C@H]1c1c[nH]c2ccc(C#N)cc12` (relative stereo) yielded a melting point of 120 to 121 °C.

Regarding `C[C@H](Cc1ccc(O)c(O)c1)NC(=O)OC(C)(C)C`, the melting point lay in the range of 116 to 118 °C.

Take `CC(=O)OC1CCC2(C)C(=CCC3C2CCC2(C)C(C(C)CC(F)(F)CC(C)(C)O)CCC32)C1` (stereo not drawn): the melting point was in the range of 168 to 170 °C.

Consider `N#Cc1c(C(F)(F)F)[nH]c2ccc(Br)cc12`, for which the melting point is 188 to 192 °C.

On to `CS(=O)(=O)c1ccc(-c2sc(-c3ccccc3Cl)nc2-c2ccc(F)cc2)cc1`, for which the melting point fell in the range of 133 to 134 °C.

On to `Cn1c(C(F)(F)F)cc(=O)n(-c2ccc3snc(CCl)c3c2)c1=O`, for which the melting point fell in the range of 201 to 203 °C.

`COc1cc(Nc2ncc(C#N)c(-c3ccc(C(C)(C)N)cc3)n2)cc(OC)c1OC` displayed a melting point of 167 to 168 °C.

The compound `Cc1cc(=O)c(-c2ccc(Cl)c(Cl)c2)c(-c2ccccc2)o1` displayed a melting point of 104 °C.

Turning to `Fc1cccc(F)c1C1=NC(c2ccc(-c3ccc(C(F)(F)F)cc3)cc2)CO1` (stereo not drawn), the melting point lay in the range of 148 to 149 °C.

`CCOC(=O)/C(CCO[N+](=O)[O-])=C(\c1ccc(Cl)cc1)c1ccc(S(C)(=O)=O)cc1` showed a melting point of 127 to 128 °C.
